Where two headings read alike, the source gives them in different places.
System: PfAtg8 WT
Type: binding, P. falciparum
Conditions: for WTRU/NOISE (response divided by overall noise, WT): pH 8
[1] = ratio of WT to K19E/K47E normalized response, hit threshold at least 1.5

Row | SMILES | (WTRU/NOISE)/(MutRU/NOISE) | WTRU/NOISE (response divided by overall noise, WT) | (WTRU/NOISE)/(MutRU/NOISE) [1]
1 | O=c1ccc2cc(O)c(O)cc2o1 [Fragment 268, 6,7-dihydroxycoumarin] | 3.73 | 1.79 | 
2 | Oc1ccc(O)c(O)c1 [Fragment 408, 1,2,4-benzenetriol] |  | 5.33 | 3.56
3 | Oc1cccc(O)c1O [Fragment 410, 1,2,3-benzenetriol] |  | 22.79 | 6.19
4 | O=[N+]([O-])c1ccc(Cl)c2nonc12 [Fragment 470, 4-chloro-7-nitrobenzofurazan] |  |  | 1.52
5 | O=[N+]([O-])c1ccc(O)c(O)c1 [Fragment 537, 4-nitrocatechol] |  | 2.39 | 1.90
6 | O=C1CC(=O)c2ccccc21 [Fragment 792, 1,3-indandione] |  | 2.38 | 2.15
